# Test results published in patent US20230338564A1, “NEODEGRADER CONJUGATES” (Orum Therapeutics, Inc., priority 2020, published 2023).
# Tests used:
# Test in all cases: In vitro antiproliferation assay, General Procedure 1 (WST-8)
# Type in all cases: cell-based
# [1] = system: SK-BR-3 breast cancer cell line
# Description: (§1) The ability of neoDegrader conjugates to inhibit cell growth was measured using in vitro anti-proliferation assay. […] Conjugates were diluted in complete cell growth medium using 4-fold serial dilutions and 100 µL was added per well. […] Viability of remaining cells was determined by colorimetric WST-8 assay (Dojindo Molecular Technologies, Inc., Rockville, MD, US). WST-8 was added to 10% of the final volume and plates were incubated at 37° C. in a humidified 5% CO2 incubator for 2-4 hours. Plates were analyzed by measuring the absorbance at 450 nm (A450) in a multi-well plate reader. Background A450 absorbance of wells with media and WST-8 only was subtracted from all values. The percent viability was calculated by dividing each treated sample value by the average value of wells with untreated cells. The percent viability value was plotted against the test sample concentration in a semi-log plot for each treatment. IC50 values were calculated automatically.
# Daudi lymphoma cell line = system: Daudi lymphoma cell line
# Description: as §1
# [2] = system: NCI-N87 gastric cancer cell line
# Description: as §1
# [3] = system: CFPAC-1 cell line (Pancreatic); conditions: Homo sapiens
# Description: as §1
# [4] = system: Ramos (non-Hodgkins lymphoma) cell line
# Description: as §1
# [5] = system: HCC1954 cell line (Breast); conditions: Homo sapiens, conjugates DAR 8
# Description: as §1
# [6] = system: BT-474 breast cancer cell line; conditions: Homo sapiens, BT-474, read-out: IC50, BT-474, conjugates DAR 8, comparators DAR not given
# Description: as §1
# [7] = system: NCI-H2030 cell line (Lung); conditions: Homo sapiens
# Description: as §1
# [8] = system: JHUEM-3 cell line (Uterus)
# Description: as §1
structure (smiles),measurement,setting,value
"CNCCOCCc1ccc(NC(=O)NCc2ccc3c(c2)CN(C2CCC(=O)NC2=O)C3=O)cc1Cl (stereo not shown) [Compound P1, 1-(3-chloro-4-[2-[2-(methylamino)ethoxy]ethyl]phenyl)-3-[[2-(2,6-dioxopiperidin-3-yl)-1-oxo-3H-isoindol-5-yl]methyl]urea]",IC50,"[1]; Homo sapiens, SK-BR-3, Breast, conjugates DAR 8",100 nM
same,"anti-proliferative activity compared, in words","[1]; SK-BR-3 cells, neoDegrader conjugates (DAR 8) versus comparators, FIGS. 7 and 8",significantly less active
same,"antiproliferative activity compared, in words","Daudi lymphoma cell line; Daudi cells, rituximab neoDegrader conjugates versus comparators, FIGS. 14 and 15",less active
same,IC50,"Daudi lymphoma cell line; Homo sapiens, Daudi",> 100 nM
same,IC50,"[2]; Homo sapiens, NCI-N87, Gastric, conjugates DAR 8",> 100 nM
same,"anti-proliferative activity compared, in words","[2]; NCI-N87 cells, neoDegrader conjugates (DAR 8) versus comparators, FIGS. 16 and 17",significantly less active
same,IC50,[3],> 100 nM
same,IC50,"[4]; Homo sapiens, Ramos",> 100 nM
same,"antiproliferative activity compared, in words","[4]; Ramos cells, rituximab neoDegrader conjugates versus comparators, FIG. 13",less active
same,IC50,[5],> 100 nM
same,IC50,[6],13 nM
same,IC50,[7],> 100 nM
same,IC50,[8],> 100 nM
